Values of other authors as cited in US6465677B1, “Method for the preparation of N-neohexyl-α-aspartyl-L-phenylalanine methyl ester from imidazolidin-4-one intermediates” (The NutraSweet Company, priority 1998, dated 2002).

Conditions: on a weight basis

## COC(=O)[C@H](Cc1ccccc1)NC(=O)[C@H](CC(=O)O)NCCC(C)(C)C [neotame, N-[N-(3,3-dimethylbutyl)-L-α-aspartyl]-L-phenylalanine 1-methyl ester]
  sweetness relative to sucrose: approximately 8,000 times as sweet as sucrose
